Values of other authors, collected in paper PMC3384292 (Journal of the American Chemical Society, 2012).

Biological target: thrombin (Homo sapiens, UniProt P00734)

hirudin
inhibition constant to thrombin: femtomolar
